Measurements reported in patent US12527806B2, “Composition for preventing or treating diabetes mellitus” (SEOUL NATIONAL UNIVERSITY R&DB FOUNDATION, priority 2020, dated 2026).

Tested on: MIN-6 cells
Experiment: Cytotoxicity: cell viability of MIN-6 cells by AOPI staining and cell counter
Conditions: 24 hours

Row | Compound | cell viability (40 μM) | cytotoxicity (cell viability) (up to 20 μM) | cytotoxicity (cell viability) (0.5 mM to 40 mM of each factor)
1 | CN(CC(=O)N(Cc1ccc(C2CCCCC2)cc1)c1ccc(C(=O)O)c(O)c1)S(=O)(=O)c1c(F)c(F)c(F)c(F)c1F [BP-1-102] | about 59% | no cytotoxicity was shown | 
2 | N[C@H]1C(O)O[C@H](CO)[C@@H](O)[C@@H]1O (stereo partly shown) [glucosamine] |  |  | did not show cytotoxicity
3 | NC(=O)c1cccnc1 [nicotinamide] |  |  | did not show cytotoxicity
